The values below come from US20080146555A1, “Uses of Kinase Inhibitors and Compositions Thereof” (GPC Biotech, Inc, priority 2004, published 2008).

SMILES strings stand for the structures. “And” between values parts separate entries of the source, which are not always exact repeats. Equal values may be shown once. Bounds are passed on as bounds.

The subject of one test is CEM. Briefly: SRB cytotoxicity, CEM parental cells. Format: cell-based. The conditions noted are these: Homo sapiens, CCRF-CEM, 72 h. As to the method: (§1) In these experiments, the P-glycoprotein expressing NCI-Adr resistant subline (Vickers et al., 1989. Mol Endocrinology 3 (1):157-164) was used. […] Briefly, cells were plated in 96 well dishes 24 hours prior to compound addition. Where noted, they were exposed to verapamil for 4 hours prior to compound addition and then throughout the treatment period (72 hours). The assay was terminated with the addition of cold TCA to a final concentration of 10% and the plates were incubated for one hour at 4° C. The plates were then washed 5 times with water and 100 μl of a Sulforhodamine B solution (4%) was added to each well. The plate was then incubated for 10 minutes at room temperature before removal of unbound dye by washing with 1% acetic acid.
(§2) The Camptothecin resistant CEM/C2 cells were derived from the T lymphoblastoid leukemia cell line CCRF/CEM by selection in the presence of Camptothecin in vitro (Kapoor et al., 1995. Oncology Research 7; 83-95, ATCC).
(§3) The effects of A37 and B16 were evaluated in the CCRF/CEM and CEM/C2 cells using the same SRB assay as described above, with 72-hour drug exposure.

A further test deals with CEM/C2. Briefly: SRB cytotoxicity, camptothecin resistant cells. Format: cell-based, human. How it is done:
as §1, §2, §3

For the next test, the system named is A129 cp80. The test is described as follows: SRB cytotoxicity, cisplatin resistant cells. The test is classed as cell-based, human.
The next test concerns A129. Briefly: SRB cytotoxicity, A129 parental cells. The test is classed as cell-based, human. The following applies: 72 h. As to the method: as §1
The parental non-mutated cell line A129 was used as a control.

Another test addresses CDKs. The test is described as follows: Kinase panel, CDKs (average/range). The test is classed as biochemical. The conditions noted are these: comparison drug; read-out: average IC50 for CDK1, CDK2, and CDK4.
The test system of a further test is HT29. Briefly: SRB cytotoxicity, HT29 parental cells. The test is classed as cell-based. The conditions noted are these: Homo sapiens, HT-29, 72 h. How it is done: as §1
(§4) The parental non-mutated cell line HT29 was used as a control.
(§5) Z. Cytotoxicity was measured using the SRB assay according to Shekan et al. as described above in Example 1A.

The test system of a further test is HT29/mit. The test is described as follows: SRB cytotoxicity, mitoxanthrone resistant cells. The test is classed as cell-based, human. As to the method: as §1, with “acid. The bound dye was solubilized with 10 mM Trizma base and the absorbance read at OD570.” for “acid.”
as §4, §5

Another test deals with 1A9-PTX10. The test is described as follows: SRB cytotoxicity, tubulin mutated paclitaxel-resistant cells. Format: cell-based, human. The following applies: for IC50: Homo sapiens, 1A9/ptx-10, 72 h, SRB. How it is done:
as §1
(§6) The tubulin mutated, paclitaxel-resistant human ovarian carcinoma cell line 1A9-PTX10 and its parental paclitaxel-sensitive cell line 1A9 were derived from the A2780 human ovarian carcinoma cell line (J Biol Chem (1997) 272, 17118-17124).

In a further test the test system is NCI-Adr resistant. Briefly: SRB cytotoxicity, P-glycoprotein expressing cells with and without verapamil. The test is classed as cell-based. The conditions noted are these: for IC50: Homo sapiens, NCI/ADR-RES, 72 h, SRB. How it is done: as §1
A further test has as its system 1A9. The test is described as follows: SRB cytotoxicity, 1A9 parental cells. The test is classed as cell-based. The following applies: Homo sapiens, 72 h. How it is done: as §1, §6
Test [1] relates to normal human fibroblast, IMR90. Briefly: Calcein AM viability assay, IMR90. Format: cell-based. The conditions noted are these: IMR-90, Calcein AM, 72 h. How it is done: (§7) The potency of the subject kinase inhibitors, as measured by loss of cellular viability, was determined with the Calcein AM assay (Molecular Probes). Calcein AM is a substrate of intracellular esterases, which is cleaved only in viable cells to generate a fluorescent product that can be quantified with a fluorescent plate reader. The fluorescent signal is proportional to the number of viable cells, and thus loss of signal in response to the exposure of cells to the subject kinase inhibitors correlates with a loss of viability. This assay not only distinguishes cell cycle arrest, in which cells may still by viable, from loss of viability, and is thus well suited for the evaluation of the subject kinase inhibitors. A compound that is a potent cytotoxic agent may cause significant loss of cell viability in such an assay.
(§8) Cellular IC50's were determined in the human colorectal carcinoma cell line, HCT-116, and the normal human fibroblast, IMR90. Protein adjusted IC50's were also determined in HCT-116. Results of such viability assays are presented in Table 2 (HCT-116 (viability/protein adjusted) and IMR-90). IC50's (μM, non-protein adjusted) for the viability assay against HCT-116 cells are shown for further compounds of the invention in Table 4.
(§9) HCT-116 or IMR90 cells were recovered from sub-confluent plates by trypsinization and 1,000 or 4,000 cells, respectively, were plated in 24-well dishes and incubated overnight at 37° C., 5% CO2. HCT-116 cells were cultured in RPMI-1640, 10% FCS, and IMR90 cells were cultured in Minimum Essential Medium-alpha, 10% FCS. After overnight incubation to allow adherence, the media was aspirated from each well and replaced with media containing a test compound at a concentration from 0 to 250 nM, spanning a total of 7 doses. The plates were returned to the incubator and cultured for an additional 72 hours (3 days). […] After 72-hours incubation with the test compound, the cells were washed twice with 1×PBS, taking special care to remove all residual buffer.
(§10) A 5 μM Calcein AM solution was prepared by dissolving a 50 μg aliquot of Calcein (Molecular Probes catalog #C3100) in 50 μl DMSO. After the Calcein had completely dissolved (10 minutes at room temperature), it was diluted into 10 ml PBS. Calcein/PBS (0.5 ml) was added to each well. The plates were incubated for 75 minutes at 37° C. (protected from light) and the fluorescent signal was read on a fluorescent plate reader (excitation 485/20 and emission 530/25).

The subject of test [2] is adriamycin resistant cell line (ADR-res). Briefly: NCI panel, adriamycin resistant cell line, SRB assay. The conditions noted are these: Homo sapiens, 48 h. Format: cell-based. From the text: (§11) The evaluation of compounds at the National Cancer Institute in their panel of 60 cell lines provides a wealth of information regarding efficacy in a wide range of tumor types and genetic backgrounds. Included within this panel are cell lines derived from leukemia, melanoma and cancers of the lung, colon, brain, ovary, breast, prostate and kidney. Use of this panel provides a measure of the efficacy of compounds in cells with alterations in many genes that are associated with neoplastic transformation including p53 and Her2/Neu as well as those involved in metabolism and those which confer multi-drug resistance. The data generated in these cell lines with the protocol described below can be used to evaluate the activity of compounds.
(§12) Cells were grown in RPMI-1640 10% FCS and plated in 96 well micro-titer plates at densities ranging from 5,000 to 40,000 cells/well. The plates were incubated for 24 hours at 37° C., 5% CO2 for 24 hours. Media containing twice the desired final concentration of the compound (5 doses spanning 4 logs) was prepared and 100 μl was added to each well containing 100 μl media plus cells to yield the desired final concentration. The plates were then incubated for an additional 48 hours.
(§13) The effect of the compound on cellular viability was determined with the Sulforhodamine B (SRB) assay, which measures total protein. Cells were fixed with cold TCA to a final concentration of 10% and incubated at 4° C. for 60 minutes. The supernatant was discarded and the plates were washed five times with water and air-dried. SRB solution at […] in 1% acetic acid was added to each well and the plates were incubated for 10 minutes at room temperature. The plates were washed five times with 1% acetic acid and air-dried. The bound stain was solubilized with 10 mM trizma base and the absorbance was read on a plate reader at […].
In general terms: In SRB staining, fixed cells bind dye roughly in proportion to their protein.

Test [3] deals with NCI panel of 60 cell lines. The test is described as follows: cells. The conditions noted are these: Homo sapiens, 60 cell, 48 h, read-out: NCI panel MG-MID (Mean-Graph Mid-point, average IC50 over panel), 48 h, SRB; IC50 <10 nM counted as 10 nM.
Excerpt: as §11, §12, §13

The test system of test [4] is HCT-116 cells. Briefly: Calcein AM viability assay, HCT-116. Format: cell-based. The conditions noted are these: Homo sapiens. How it is done: as §7, §8, §9, §10
Test [5] concerns HCT-116 cells. Briefly: Clonogenic survival assay with HCT-116 cells. Format: cell-based. The following applies: Homo sapiens. How it is done:
This assay was used to determine the concentration of a compound that results in irreversible loss of viability after a specified period of exposure. Essentially, cells are exposed to compound for a period of […], and are then transferred to compound-free growth medium. After continued incubation in the compound-free medium for a number of days, the number of colonies recovered is counted as an estimate of the number of surviving cells.
Media (RPMI-1640, 10% FCS, pen/strep) was pre-warmed to 37° C. in a water bath. Cells were incubated and grown at 37° C., 5% CO2. Cells were recovered by trypsinization from sub-confluent plates and counted using a hemocytometer. 1×10^4 cells were plated in 25 mls of media in a 15 cm tissue culture dish. […] were set up for each test compound, and were incubated overnight at 37° C. The compound was diluted into media at 7 concentrations and the media on the cells was replaced with that containing the test compound. Two plates were set up for each concentration of the compound to be tested, as well as two control plates without compound. Plates were incubated as above for […], media was removed and replaced with fresh media, and the plates were incubated an additional 7 days and washed with PBS. Colonies were stained with crystal violet solution (0.4% crystal violet, 20% ethanol) for 5 minutes, washed twice with distilled water, and counted.

As to `CC[C@@]1(O)C(=O)OCc2c1cc1n(c2=O)Cc2cc3ccccc3nc2-1` [Camptothecin, reference compound], the IC50 (as a rule, the point on the concentration scale where inhibition reaches its midpoint) came to 3.5 nM with CEM and 4820 nM in the test on CEM/C2 (Homo sapiens, CEM/C2, 72 h, SRB). In addition, the “RR (relative resistance) CEM/C2 vs CEM” value with CEM/C2 was determined as 1378.

`N.N.[Cl][Pt][Cl]` [Cisplatin, cis-diamminedichloroplatinum (II), reference compound]: in the test on A129 cp80, the “RR (relative resistance) A129 cp80 vs A129” value is given as 51.6. The IC50 in the test with A129 cp80 (72 h, SRB) stood at 16700 nM; in the test with A129, 324 nM.

In the case of `CN1CC[C@H](c2c(O)cc(O)c3c(=O)cc(-c4ccccc4Cl)oc23)[C@H](O)C1` [Flavopiridol, reference compound], at CDKs, the concentration for half-maximal inhibition (IC50) is ~650 nM and 650 nM.

On to `O=C1c2c(O)ccc(O)c2C(=O)c2c(NCCNCCO)ccc(NCCNCCO)c21` [Mitoxanthrone, reference compound], for which the IC50 with HT29 worked out at 1230 nM; with HT29/mit (Homo sapiens, HT-29, 72 h, SRB), 188000 nM. For the same molecule, the “RR (relative resistance) HT29/mit vs HT29” value in the test with HT29/mit came out at 153.1.

Consider `CC(=O)O[C@H]1C(=O)[C@@]2(C)[C@H]([C@H](OC(=O)c3ccccc3)[C@]3(O)C[C@H](OC(=O)[C@H](O)[C@@H](NC(=O)c4ccccc4)c4ccccc4)C(C)=C1C3(C)C)[C@]1(OC(C)=O)CO[C@@H]1C[C@@H]2O` [Paclitaxel, reference compound], for which the half-inhibitory concentration (IC50) came out at 235 nM in the test on 1A9-PTX10, 39 nM in the test on NCI-Adr resistant (verapamil 12.5 μg/ml), 3960 nM with NCI-Adr resistant (without verapamil) and 4 nM in the test on 1A9. Besides, the “RR (relative resistance) 1A9-PTX10 vs 1A9” value in the test on 1A9-PTX10 (ratio of mean IC50 resistant/sensitive) is 59. In the test with NCI-Adr resistant (ratio of mean IC50), the “RR (relative resistance) NCI-Adr resistant −/+ verapamil” value amounted to 101.5.

Take `CN1CCN(NC(=O)Nc2cccc3c2C(=O)c2c-3n[nH]c2-c2ccc(OCCN3CCOCC3)cc2)CC1` [Q]: the IC50 in [1] is under 100 nM; in [2], under 10000 nM; in [3] it was under 100 nM; in the test with HCT-116 cells [4] (HCT-116, 72 h, Calcein AM, 72 h, read-out: HCT-116 IC50 Viability), under 100 nM; with HCT-116 cells [4] (HCT-116, plus 1 mg/ml alpha acidic glycoprotein and 45 mg/ml human serum albumin, read-out: HCT-116 IC50 Protein adjusted), under 1000 nM; in the test on HCT-116 cells [5] (24 h exposure, read-out: HCT-116 IC50 Clonogenic 24 h) it was under 100 nM. Further, in the test with HCT-116 cells [5] (72 h exposure, read-out: HCT-116 IC50 Clonogenic 72 h), the IC50 is under 100 nM.

Regarding `CC(=O)O[C@@]12CO[C@@H]1C[C@H](O)[C@@]1(C)C(=O)[C@H](O)C3=C(C)[C@@H](OC(=O)[C@H](O)[C@@H](NC(=O)OC(C)(C)C)c4ccccc4)C[C@@](O)([C@@H](OC(=O)c4ccccc4)[C@H]21)C3(C)C` [Taxotere, N-debenzoyl-N-tert-butoxycarbonyl-10-deacetyl paclitaxel, reference compound], the half-maximal inhibitory concentration (IC50) stood at 160 nM with 1A9-PTX10, 36.3 nM in the test on NCI-Adr resistant (verapamil 12.5 μg/ml), 3310 nM with NCI-Adr resistant (without verapamil) and 1.75 nM in the test with 1A9.
